# Like-named read-outs stand apart in the source and are kept apart here.
# What was measured:
# [1] = target: T1, HCV NS3 protease (full length NS34a) (Hepatitis C virus genotype 1b, UniProt P26663); assay: HCV NS3 protease assay (FRET, full length NS34a); assay type: biochemical; details: for inhibition at 0.03 µM: read-out: Activity % inhibition @ 0.03 μM, 0.03 μM compound
# T1 construct: The protease activity of the full length NS34a was measured using a FRET-based assay; made in house
# In short: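 FRET readout over 30 minutes at room temperature, with IC50 fitted to initial rates from replicate curves. Enzyme was full-length NS34a; substrate a peptide from the NS4AB cleavage site labelled with QXL520 and 5-FAMsp; buffer 50 mM Tris pH8 containing 20 mM DTT, 1% CHAPS, 10% glycerol and 5% DMSO.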
# [2] = test system: HCV subgenomic replicon in Huh-7 cells; assay: Replicon assay, EC50 luciferase readout; assay type: cell-based, hepatitis C virus (HCV); details: Hepatitis C virus
# In short: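 Huh-7 cells carrying a subgenomic HCV replicon (NS3-NS5b, firefly luciferase-neo fusion) were treated with compound for 72 h at 37°C, 5% CO2. EC50 derived from Bright-Glo luciferase signal as a proxy for HCV RNA; cell viability measured in parallel by Alamar blue.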
# [3] = test system: HCV replicon GT1b RNA in Huh-7 cells; assay: Quantitative RT-PCR of HCV replicon RNA levels; assay type: cell-based, hepatitis C virus (HCV)
# Description: In order to directly determine HCV replicon RNA levels in HCV replicon bearing Huh-7 cells the cells were seeded at 100,000 cellswell, in 6 well tissue culture plates, and allowed to attach overnight before compound addition at a final DMSO concentration of 0.1%. At 72 hours post compound addition RNA was extracted from DMSO-only treated and compound-treated cells using a Qiagen RNeasy kit (Qiagen) according to the manufacturer's instructions. All samples were then normalized for total RNA concentration. […] Briefly, sample RNA (2 ng) was combined with the NS5A primers listed above at a final concentration of 1 μM and an equal volume of 2× Quantitect SYBR Green RT-PCR Master Mix. […] Amplification of HPRT RNA for each sample was determined in separate reactions. The amount of input RNA from the untreated control sample was varied in order to generate a standard curve by which the relative levels of replicon RNA from each treated sample could be expressed as fold changes relative to the untreated control sample. […] Values were calculated from the average of three independent experiments, where log10 [sequence] levels at day 3, 7, 10, and 14 post compound treatment were subtracted from log10 [sequence] […]
# [4] = protease activity of full length NS34a, FRET peptide substrate, read-out: Activity IC50
# [5] = Huh-7, 72 h, Huh-7 replicon cells, 72 h, single value, or second value of a pair x:y, read-out: Activity EC50 (μM) (EC50 luciferase readout)
# T1 sequence (P26663 1658-1711): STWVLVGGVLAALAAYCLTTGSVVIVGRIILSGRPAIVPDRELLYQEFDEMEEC
# T1 sequence (P26663 1027-1657): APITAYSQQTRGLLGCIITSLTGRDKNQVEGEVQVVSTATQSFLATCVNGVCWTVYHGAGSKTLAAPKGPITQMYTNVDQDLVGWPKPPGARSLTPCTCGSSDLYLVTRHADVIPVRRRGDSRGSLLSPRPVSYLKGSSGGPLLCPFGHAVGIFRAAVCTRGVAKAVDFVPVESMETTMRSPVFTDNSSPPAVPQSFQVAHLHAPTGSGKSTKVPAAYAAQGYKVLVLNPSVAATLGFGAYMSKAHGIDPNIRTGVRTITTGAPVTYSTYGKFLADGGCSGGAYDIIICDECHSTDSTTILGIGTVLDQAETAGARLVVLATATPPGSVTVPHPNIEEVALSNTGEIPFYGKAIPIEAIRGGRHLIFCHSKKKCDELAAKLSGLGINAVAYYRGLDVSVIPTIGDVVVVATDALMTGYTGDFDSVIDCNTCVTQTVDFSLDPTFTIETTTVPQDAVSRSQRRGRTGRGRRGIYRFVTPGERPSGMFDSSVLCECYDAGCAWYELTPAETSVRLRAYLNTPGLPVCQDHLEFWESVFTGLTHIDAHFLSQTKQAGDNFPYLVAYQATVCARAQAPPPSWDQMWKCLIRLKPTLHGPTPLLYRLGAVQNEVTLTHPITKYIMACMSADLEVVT
SMILES,"IC50 [1, 4] [nM]","EC50 [2, 5] [µM]","EC50 ([2]; Huh-7, replicon assay, set in line with previous observations, read-out: pre-determined EC50 set for the combination experiments) [µM]","decline in HCV replicon RNA over time ([3]; 10x EC50, day 3, 7, 10 and 14, compound alone)","decline in HCV replicon RNA, combination ([3]; 10x EC50, in combination with either Danoprevir or VX-222)","IC50 ([1]; IC50 values of 10-150 μM against the protease activity of the full length NS34a, or at least 40% inhibition of protease activity at a concentration of 100 μM) [nM]",inhibition at 0.03 µM [1] [%]
"CC[C@@H](N[C@@H](C)CC(N)=O)c1ccc(Cl)c(Oc2ccccc2)c1F (single isomer, unassigned) [Example 88]",100,0.4,0.3,comparable over time with Danoprevir and VX-222,largest declines,–,–
CC[C@H](N[C@@H](C)CC(N)=O)c1ccc(Cl)c(Oc2ccccc2)c1Cl [Example 324],1800,> 10,–,–,–,–,–
CC[C@H](N[C@H](C)CC(N)=O)c1ccc(Cl)c(Oc2ccccc2)c1Cl [Example 325],–,> 10,–,–,–,10000 to 150000,–
C[C@@H](CC(=O)NCCN)NCc1ccc(Cl)c(Oc2ccccc2)c1F [Example 329],–,4,–,–,–,–,57
CC[C@@H](N[C@@H](C)C(=O)NCCCN)c1ccc(Cl)c(Oc2ccccc2)c1F [Example 331],–,> 10,–,–,–,–,49.5
CC[C@@H](N[C@@H](C)CC(N)=O)c1ccc(Cl)c(Oc2ccc(N)c(F)c2)c1F [Example 333],61,0.057,–,–,–,–,–
